# Results reported in patent US11802111B2, “Cyclobutyl amide monoacylglycerol lipase modulators” (Janssen Pharmaceutica NV, priority 2020, dated 2023).
# Biological target: human MGL from HeLa cells (Homo sapiens (Human), UniProt Q99685)
# Assay: MGL in vitro activity assay ([glycerol-1,3-3H]-oleoyl glycerol hydrolysis, activated carbon filtration)
# Format: biochemical
# Conditions: 300 nM [Glycerol-1,3-3H]-oleoyl glycerol, one hour
# Summary of the method: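 Endogenous human MGL in HeLa cells/homogenates incubated 1 h with test compounds and 300 nM [glycerol-1,3-3H]-oleoyl glycerol. Released 3H-glycerol passing an activated carbon filter counted as activity; screening at 10 μM compound, top IC50 concentration set empirically.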
# Chain of human MGL from HeLa cells (Q99685 whole entry): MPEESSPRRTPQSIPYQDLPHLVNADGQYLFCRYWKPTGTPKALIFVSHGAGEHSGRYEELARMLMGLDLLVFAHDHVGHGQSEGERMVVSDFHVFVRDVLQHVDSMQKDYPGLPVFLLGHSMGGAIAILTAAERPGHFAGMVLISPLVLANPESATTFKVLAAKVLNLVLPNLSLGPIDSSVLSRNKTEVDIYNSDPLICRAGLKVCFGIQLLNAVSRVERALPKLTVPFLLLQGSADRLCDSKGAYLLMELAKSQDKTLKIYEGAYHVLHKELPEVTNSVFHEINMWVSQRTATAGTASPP
row,IC50,Compound
1,22 nM,"CCOc1cc(F)cc(C2CCC3(CC2)CN(C(=O)[C@H]2C[C@@](C)(O)C2)C3)c1 [Example 365, (7-(3-Ethoxy-5-fluorophenyl)-2-azaspiro[3.5]nonan-2-yl)((1s,3s)-3-hydroxy-3-methylcyclobutyl)methanone]"
2,18 nM,"Cc1c(F)cccc1C1CCC2(CC1)CN(C(=O)[C@H]1C[C@@](C)(O)C1)C2 [Example 359, (7-(3-Fluoro-2-methylphenyl)-2-azaspiro[3.5]nonan-2-yl)((1s,3s)-3-hydroxy-3-methylcyclobutyl)methanone]"
3,33 nM,"COc1cc(OC2CCC3(CC2)CN(C(=O)[C@H]2C[C@@](C)(O)C2)C3)ccc1C [Example 408, ((1s,3s)-3-Hydroxy-3-methylcyclobutyl)(7-(3-methoxy-4-methylphenoxy)-2-azaspiro[3.5]nonan-2-yl)methanone]"
4,29 nM,"Cc1cc(F)ccc1C1CCC2(CC1)CN(C(=O)[C@H]1C[C@@](C)(O)C1)C2 [Example 357, (7-(4-Fluoro-2-methylphenyl)-2-azaspiro[3.5]nonan-2-yl)((1s,3s)-3-hydroxy-3-methylcyclobutyl)methanone]"
5,2380 nM,"C[C@]1(O)C[C@@H](C(=O)N2CC3(CCC(c4ncn5c4CCCC5)C3)C2)C1 (mixture of isomers) [Example 330, (rac)-((1s,3s)-3-Hydroxy-3-methylcyclobutyl)(6-(5,6,7,8-tetrahydroimidazo[1,5-a]pyridin-1-yl)-2-azaspiro[3.4]octan-2-yl)methanone]"
6,7.8 nM,"CC(C)(C)c1cccc(OC2CCC3(CC2)CN(C(=O)[C@H]2C[C@@](C)(O)C2)C3)n1 [Example 425, (7-((6-(tert-Butyl)pyridin-2-yl)oxy)-2-azaspiro[3.5]nonan-2-yl)((1s,3s)-3-hydroxy-3-methylcyclobutyl)methanone]"
7,0.84 nM,"COC1(c2cc(C)cc(C)c2)CCC2(CC1)CN(C(=O)[C@H]1C[C@@](C)(O)C1)C2 [Example 344, (7-(3,5-Dimethylphenyl)-7-methoxy-2-azaspiro[3.5]nonan-2-yl)((1s,3s)-3-hydroxy-3-methylcyclobutyl)methanone]"
8,53 nM,"Cc1ccc(OC2CCC3(CC2)CN(C(=O)[C@H]2C[C@@](C)(O)C2)C3)cc1 [Example 404, ((1s,3s)-3-Hydroxy-3-methylcyclobutyl)(7-(p-tolyloxy)-2-azaspiro[3.5]nonan-2-yl)methanone]"
9,5.1 nM,"CC1(c2cccc(C3CCC4(CC3)CN(C(=O)[C@H]3C[C@@](C)(O)C3)C4)n2)CC1 [Example 372, ((1s,3s)-3-Hydroxy-3-methylcyclobutyl)(7-(6-(1-methylcyclopropyl)pyridin-2-yl)-2-azaspiro[3.5]nonan-2-yl)methanone]"
10,8.2 nM,"Cc1ccc(OC2CCC3(CC2)CN(C(=O)[C@H]2C[C@@](C)(O)C2)C3)nc1C(F)(F)F [Example 451, ((1s,3s)-3-Hydroxy-3-methylcyclobutyl)(7-((5-methyl-6-(trifluoromethyl)pyridin-2-yl)oxy)-2-azaspiro[3.5]nonan-2-yl)methanone]"
11,1.4 nM,"Cn1cc(C(F)(F)F)c2ccc(OC3CCC4(CC3)CN(C(=O)[C@H]3C[C@@](C)(O)C3)C4)nc21 [Example 476, ((1s,3s)-3-Hydroxy-3-methylcyclobutyl)(7-((1-methyl-3-(trifluoromethyl)-1H-pyrrolo[2,3-b]pyridin-6-yl)oxy)-2-azaspiro[3.5]nonan-2-yl)methanone]"
12,1390 nM,"CC(C)(C)n1cnc(C2CCC3(CC2)CN(C(=O)[C@H]2C[C@@](C)(O)C2)C3)c1 [Example 381, (7-(1-(tert-Butyl)-1H-imidazol-4-yl)-2-azaspiro[3.5]nonan-2-yl)((1s,3s)-3-hydroxy-3-methylcyclobutyl)methanone]"
13,26 nM,"Cc1cc2ccc(OC3CCC4(CC3)CN(C(=O)[C@H]3C[C@@](C)(O)C3)C4)nc2n1C [Example 472, (7-((1,2-Dimethyl-1H-pyrrolo[2,3-b]pyridin-6-yl)oxy)-2-azaspiro[3.5]nonan-2-yl)((1s,3s)-3-hydroxy-3-methylcyclobutyl)methanone]"
14,32 nM,"Cc1nc(OC2CCC3(CC2)CN(C(=O)[C@H]2C[C@@](C)(O)C2)C3)ccc1C(F)F [Example 438, (7-((5-(Difluoromethyl)-6-methylpyridin-2-yl)oxy)-2-azaspiro[3.5]nonan-2-yl)((1s,3s)-3-hydroxy-3-methylcyclobutyl)methanone]"
15,52 nM,"Cc1nc([C@@H](C)C2CC3(C2)CN(C(=O)[C@H]2C[C@@](C)(O)C2)C3)ccc1C(F)(F)F (stereo in doubt) [Example 313, ((1s,3*R)-3-Hydroxy-3-methylcyclobutyl)(6-((*S)-1-(6-methyl-5-(trifluoromethyl)pyridin-2-yl)ethyl)-2-azaspiro[3.3]heptan-2-yl)methanone]"

# The next lines start with the compound.
row,Compound,IC50
1,"COc1cccc(C2CCC3(C2)CN(C(=O)[C@H]2C[C@@](C)(O)C2)C3)c1F (mixture of isomers) [Example 79, (rac)-(6-(2-Fluoro-3-methoxyphenyl)-2-azaspiro[3.4]octan-2-yl)((1s,3s)-3-hydroxy-3-methylcyclobutyl)methanone]",242 nM
2,"Cc1nc(CC2CC3(C2)CN(C(=O)[C@H]2C[C@@](C)(O)C2)C3)ccc1C(F)(F)F [Example 278, ((1s,3s)-3-Hydroxy-3-methylcyclobutyl)(6-((6-methyl-5-(trifluoromethyl)pyridin-2-yl)methyl)-2-azaspiro[3.3]heptan-2-yl)methanone]",16 nM
3,"Cn1nc(C(F)(F)F)cc1C1CCC2(C1)CN(C(=O)[C@H]1C[C@@](C)(O)C1)C2 (mixture of isomers) [Example 101, (rac)-((1s,3s)-3-Hydroxy-3-methylcyclobutyl)(6-(1-methyl-3-(trifluoromethyl)-1H-pyrazol-5-yl)-2-azaspiro[3.4]octan-2-yl)methanone]",753 nM
4,"Cc1ccc(C2CCC3(C2)CN(C(=O)[C@H]2C[C@@](C)(O)C2)C3)cc1C(F)F (mixture of isomers) [Example 92, (rac)-(6-(3-(Difluoromethyl)-4-methylphenyl)-2-azaspiro[3.4]octan-2-yl)((1s,3s)-3-hydroxy-3-methylcyclobutyl)methanone]",27 nM
5,"C[C@]1(O)C[C@@H](C(=O)N2CC3(CCC(c4cc(Cl)cc(OC(F)(F)F)c4)CC3)C2)C1 [Example 149, (7-(3-Chloro-5-(trifluoromethoxy)phenyl)-2-azaspiro[3.5]nonan-2-yl)((1s,3s)-3-hydroxy-3-methylcyclobutyl)methanone]",1.7 nM
6,"Cc1ccc(CC2CC3(C2)CN(C(=O)[C@H]2C[C@@](C)(O)C2)C3)c(C(F)(F)F)c1 [Example 213, ((1s,3s)-3-Hydroxy-3-methylcyclobutyl)(6-(4-methyl-2-(trifluoromethyl)benzyl)-2-azaspiro[3.3]heptan-2-yl)methanone]",4.1 nM
7,"C[C@]1(O)C[C@@H](C(=O)N2CC3(CCC(Oc4cccc(OC(F)(F)F)c4)CC3)C2)C1 [Example 263, ((1s,3s)-3-Hydroxy-3-methylcyclobutyl)(7-(3-(trifluoromethoxy)phenoxy)-2-azaspiro[3.5]nonan-2-yl)methanone]",12 nM
8,"C[C@]1(O)C[C@@H](C(=O)N2CC3(CC(Cc4ccc5ccccc5n4)C3)C2)C1 [Example 198, ((1s,3s)-3-Hydroxy-3-methylcyclobutyl)(6-(quinolin-2-ylmethyl)-2-azaspiro[3.3]heptan-2-yl)methanone]",56 nM
9,"Cc1c(C2CC3(C2)CN(C(=O)[C@H]2C[C@@](C)(O)C2)C3)cccc1C(F)(F)F [Example 21, ((1s,3s)-3-Hydroxy-3-methylcyclobutyl)(6-(2-methyl-3-(trifluoromethyl)phenyl)-2-azaspiro[3.3]heptan-2-yl)methanone]",112 nM
10,"CCc1cccc(C2CCC3(CC2)CN(C(=O)[C@H]2C[C@@](C)(O)C2)C3)c1OC [Example 144, (7-(3-Ethyl-2-methoxyphenyl)-2-azaspiro[3.5]nonan-2-yl)((1s,3s)-3-hydroxy-3-methylcyclobutyl)methanone]",16 nM
11,"Cn1ncc2cc(F)c(CC3CC4(C3)CN(C(=O)[C@H]3C[C@@](C)(O)C3)C4)cc21 [Example 304, (6-((5-Fluoro-1-methyl-1H-indazol-6-yl)methyl)-2-azaspiro[3.3]heptan-2-yl)((1s,3s)-3-hydroxy-3-methylcyclobutyl)methanone]",13 nM
12,"C[C@]1(O)C[C@@H](C(=O)N2CC3(CC[C@@H](Cc4cccc(C(F)(F)F)c4)C3)C2)C1 (stereo in doubt) [Example 178, ((1s,3*R)-3-Hydroxy-3-methylcyclobutyl)((*S)-6-(3-(trifluoromethyl)benzyl)-2-azaspiro[3.4]octan-2-yl)methanone]",11 nM
13,"Cn1ccc2ccc(CC3CC4(C3)CN(C(=O)[C@H]3C[C@@](C)(O)C3)C4)nc21 [Example 224, ((1s,3s)-3-Hydroxy-3-methylcyclobutyl)(6-((1-methyl-1H-pyrrolo[2,3-b]pyridin-6-yl)methyl)-2-azaspiro[3.3]heptan-2-yl)methanone]",27 nM
14,"Cc1ccc(CC2CC3(C2)CN(C(=O)[C@H]2C[C@@](C)(O)C2)C3)cc1F [Example 229, (6-(3-Fluoro-4-methylbenzyl)-2-azaspiro[3.3]heptan-2-yl)((1s,3s)-3-hydroxy-3-methylcyclobutyl)methanone]",12 nM
15,"COc1cc(C)cc(C2CCC3(C2)CN(C(=O)[C@H]2C[C@@](C)(O)C2)C3)c1 (mixture of isomers) [Example 80, (rac)-((1s,3s)-3-Hydroxy-3-methylcyclobutyl)(6-(3-methoxy-5-methylphenyl)-2-azaspiro[3.4]octan-2-yl)methanone]",104 nM
16,"C[C@]1(O)C[C@@H](C(=O)N2CC3(CC[C@@H](c4cccc(C(F)(F)F)c4)C3)C2)C1 (stereo in doubt) [Example 62, ((1s,3*S)-3-Hydroxy-3-methylcyclobutyl)((*R)-6-(3-(trifluoromethyl)phenyl)-2-azaspiro[3.4]octan-2-yl)methanone]",34 nM
17,"Cc1cn(C)c2nc(CC3CC4(C3)CN(C(=O)[C@H]3C[C@@](C)(O)C3)C4)ccc12 [Example 291, (6-((1,3-Dimethyl-1H-pyrrolo[2,3-b]pyridin-6-yl)methyl)-2-azaspiro[3.3]heptan-2-yl)((1s,3s)-3-hydroxy-3-methylcyclobutyl)methanone]",3.8 nM
